Data: patent publication US7709511B2, “Benzothiazolone derivatives” (AstraZeneca AB, priority 2005, dated 2010)
Structures can show the parent of a compound that is named as a salt.

How the values were obtained:
Adrenergic β2 [1] = molecular target: T1, Adrenergic β2 (Homo sapiens, UniProt P07550); test: Adrenergic β2 mediated cAMP production in H292 cells (AlphaScreen cAMP detection); assay type: cell-based; details: for EC50: cAMP, test compounds incubated 10 minutes at room temperature, 300 μM rolipram; for Intrinsic Activity: fraction relative to the maximum activity determined for formoterol, 10 minutes incubation
T1 construct: endogenous in cells; host or cells: H292 cells
Method: Adrenergic β2 Mediated cAMP Production
H292 cells were grown in RPMI (Roswell Park Memorial Institute) medium containing, 10% (v/v) FBS (foetal bovine serum) and 2 mM L-glutamine. Cells were grown in 225 cm2 flasks containing 25 mL media in a humidified incubator at 37° C., 5% CO2. Cells were harvested from the flask and passaged at a 1 in 10 dilution once per week.
The media from flasks containing H292 cells was removed, rinsed with 10 mL PBS (phosphate buffered saline) and replaced with 10 mL Accutase™ cell detachment solution. Flasks were incubated for 15 minutes in a humidified incubator at 37° C., 5% CO2. The cell suspension was counted and the cells re-suspended in RPMI media (containing 10% (v/v) FBS and 2 mM L-glutamine) at 0.05×10^6 cells per mL. 5000 cells in 100 μL were added to each well of a tissue-culture-treated 96-well plate and the cells incubated overnight in a humidified incubator at 37° C., 5% CO2. The culture media was removed, washed twice with 100 μL assay buffer and replaced with 50 μL assay buffer. Cells were rested at room temperature for 20 minutes after which time 25 μL of rolipram (1.2 mM made up in assay buffer containing 2.4% (v/v) dimethylsulphoxide) was added. Cells were incubated with rolipram for 10 minutes after which time test compounds (made up as ×4 concentrated stocks in assay buffer containing 4% (v/v) dimethylsulphoxide) were added and the cells were incubated for 10 minutes at room temperature. Final rolipram concentration in the assay was 300 μM and final vehicle concentration was 1.6% (v/v) dimethylsulphoxide. The reaction was stopped by removing supernatants, washing once with 100 μL assay buffer and replacing with 50 μL lysis buffer. The cell monolayer was frozen at −80° C. for 30 minutes (or overnight).
(§1) AlphaScreen™ cAMP Detection
(§2) The concentration of cAMP (cyclic adenosine monophosphate) in the cell lysate was determined using the AlphaScreen™ methodology. The frozen cell plate was thawed for 20 minutes on a plate shaker then 10 μL of the cell lysate was transferred to a 96-well white plate. 40 μL of mixed AlphaScreen™ detection beads (containing equal volumes of donor beads (pre-incubated with biotinylated cAMP in the dark for 30 minutes) and acceptor beads), was added to each well and the plate incubated at room temperature for 10 hours in the dark. The AlphaScreen™ signal was measured using an EnVision spectrophotometer (Perkin-Elmer Inc.) with the recommended manufacturer's settings. cAMP concentrations were determined by reference to a calibration curve determined in the same experiment using standard cAMP concentrations (made up in lysis buffer in a 96-well tissue-culture-treated plate and frozen/thawed alongside the test samples) and detected using the same protocol. Concentration response curves for agonists were constructed to determine both the pEC50 and Intrinsic Activity. Intrinsic Activity was expressed as a fraction relative to the maximum activity determined for formoterol in each experiment.

Adrenergic β2 [2] = molecular target: T1, Adrenergic β2; test: Alternative adrenergic β2 mediated cAMP production in H292 cells (AlphaScreen cAMP detection); assay type: cell-based; details: for EC50: cAMP, test compounds incubated 60 minutes at room temperature, 300 μM rolipram, read-out: β2 pEC50 (converted); for β2 Int Act: fraction relative to the maximum activity determined for formoterol, 60 minutes incubation
Method: Alternative Adrenergic β2 Mediated cAMP Production Cell Preparation
H292 cells were grown in 225 cm2 flasks incubator at 37° C., 5% CO2 in RPMI medium containing, 10% (v/v) FBS (foetal bovine serum) and 2 mM L-glutamine.
Adherent H292 cells were removed from tissue culture flasks by treatment with Accutase™ cell detachment solution for 15 minutes. Flasks were incubated for 15 minutes in a humidified incubator at 37° C., 5% CO2. Detached cells were re-suspended in RPMI media (containing 10% (v/v) FBS and 2 mM L-glutamine) at 0.05×10^6 cells per mL. 5000 cells in 100 μL were added to each well of a tissue-culture-treated 96-well plate and the cells incubated overnight in a humidified incubator at 37° C., 5% CO2. The culture media was removed and cells were washed twice with 100 μL assay buffer and replaced with 50 μL assay buffer (HBSS solution containing 10 mM HEPES pH7.4 and 5 mM glucose). Cells were rested at room temperature for 20 minutes after which time 25 μL of rolipram (1.2 mM made up in assay buffer containing 2.4% (v/v) dimethylsulphoxide) was added. Cells were incubated with rolipram for 10 minutes after which time test compounds were added and the cells were incubated for 60 minutes at room temperature. The final rolipram concentration in the assay was 300 μM and final vehicle concentration was 1.6% (v/v) dimethylsulphoxide. The reaction was stopped by removing supernatants, washing once with 100 μL assay buffer and replacing with 50 μL lysis buffer. The cell monolayer was frozen at −80° C. for 30 minutes (or overnight).
as §1
as §2, with “using” for “using the”, “pre-incubated” for “(containing equal volumes of donor beads (pre-incubated”, “cAMP,” for “cAMP in the dark for 30 minutes) and acceptor beads),”, “concentrations.” for “concentrations (made up in lysis buffer in a 96-well tissue-culture-treated plate and frozen/thawed alongside the test samples) and detected using the same protocol.”, “constructed and data was fitted to a four parameter logistic equation” for “constructed”

T1 sequence (P07550 whole entry): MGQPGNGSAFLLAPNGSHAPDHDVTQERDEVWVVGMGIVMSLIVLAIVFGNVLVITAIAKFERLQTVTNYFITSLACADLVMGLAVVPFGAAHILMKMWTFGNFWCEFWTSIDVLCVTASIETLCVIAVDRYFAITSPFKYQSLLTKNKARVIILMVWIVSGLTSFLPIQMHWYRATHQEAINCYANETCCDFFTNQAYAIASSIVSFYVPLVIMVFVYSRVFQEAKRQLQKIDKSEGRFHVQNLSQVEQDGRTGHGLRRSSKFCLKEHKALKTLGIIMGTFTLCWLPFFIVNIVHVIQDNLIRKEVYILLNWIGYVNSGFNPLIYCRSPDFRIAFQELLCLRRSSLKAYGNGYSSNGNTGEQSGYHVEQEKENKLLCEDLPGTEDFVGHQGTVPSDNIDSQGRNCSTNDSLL

| SMILES | EC50 (Adrenergic β2 [1]) | Intrinsic Activity (Adrenergic β2 [1]) | EC50 (Adrenergic β2 [2]) | β2 Int Act (Adrenergic β2 [2]) |
| --- | --- | --- | --- | --- |
| CC(C)(C)OC(=O)N1CCC(CN(CCNCCc2ccc(O)c3[nH]c(=O)sc23)C(=O)CCOCCc2ccccc2)CC1 [Example 1, tert-Butyl 4-({(2-{[2-(4-hydroxy-2-oxo-2,3-dihydro-1,3-benzothiazol-7-yl)ethyl]amino}ethyl)[3-(2-phenylethoxy)propanoyl]amino}methyl)piperidine-1-carboxylate] | 0.0631 µM | 0.7 | – | – |
| O=C(CCOCCc1ccccc1)N(CCCNCCc1ccc(O)c2[nH]c(=O)sc12)CCc1ccccc1 [Example 8, N-(3-{[2-(4-Hydroxy-2-oxo-2,3-dihydro-1,3-benzothiazol-7-yl)ethyl]amino}propyl)-3-(2-phenylethoxy)-N-(2-phenylethyl)propanamide] | 0.00126 µM | 0.7 | – | – |
| O=c1[nH]c2c(O)ccc(CCNCCN(CCCOCCc3ccccc3)CCc3ccccc3)c2s1 [Example 13, 4-Hydroxy-7-[2-({2-[[3-(2-phenylethoxy)propyl](2-phenylethyl)amino]ethyl}amino)-ethyl]-1,3-benzothiazol-2(3H)-one] | – | – | 0.0631 µM | 0.5 |
| CCN(CC)CCN(CCNCCc1ccc(O)c2[nH]c(=O)sc12)C(=O)CCOCCc1cc(OC)ccc1Br [Example 21, 3-[2-(2-Bromo-5-methoxyphenyl)ethoxy]-N-[2-(diethylamino)ethyl]-N-(2-{[2-(4-hydroxy-2-oxo-2,3-dihydro-1,3-benzothiazol-7-yl)ethyl]amino}ethyl)propanamide dihydrobromide] | – | – | 0.0794 µM | 0.6 |
| CCN(CC)CCN(CCNCCc1ccc(O)c2[nH]c(=O)sc12)C(=O)CCOCCc1c(Cl)cccc1Cl [Example 24, 3-[2-(2,6-Dichlorophenyl)ethoxy]-N-(2-diethylaminoethyl)-N-{2-[2-(4-hydroxy-2-oxo-2,3-dihydro-1,3-benzothiazol-7-yl)ethylamino]ethyl}propanamide dihydrobromide] | – | – | 0.1 µM | 0.9 |
| CCN(CC)CCN(CCNCCc1ccc(O)c2[nH]c(=O)sc12)C(=O)CCOCCc1cccc(C(F)(F)F)c1 [Example 25, N-(2-Diethylaminoethyl)-N-{2-[2-(4-hydroxy-2-oxo-2,3-dihydro-1,3-benzothiazol-7-yl)ethylamino]ethyl}-3-[2-(3-trifluoromethylphenyl)ethoxy]propanamide dihydrobromide] | – | – | 0.0631 µM | 0.8 |

More lines, now with the values ahead:

| EC50 (Adrenergic β2 [1]) | Intrinsic Activity (Adrenergic β2 [1]) | EC50 (Adrenergic β2 [2]) | β2 Int Act (Adrenergic β2 [2]) | SMILES |
| --- | --- | --- | --- | --- |
| 0.0126 µM | 0.8 | – | – | O=C(CCOCCc1ccccc1)N(CCNCCc1ccc(O)c2[nH]c(=O)sc12)Cc1cccnc1 [Example 5, N-[2-[2-(4-Hydroxy-2-oxo-3H-benzothiazol-7-yl)ethylamino]ethyl]-3-phenethyloxy-N-(3-pyridylmethyl)propanamide] |
| 0.00501 µM | 0.6 | 0.00794 µM | 0.7 | O=C(CCOCCc1ccc(Br)cc1)N(CCNCCc1ccc(O)c2[nH]c(=O)sc12)CCc1ccccc1 [Example 10, 3-[2-(4-Bromophenyl)ethoxy]-N-[2-[2-(4-hydroxy-2-oxo-3H-benzothiazol-7-yl)ethylamino]ethyl]-N-phenethyl-propanamide] |
| 0.0158 µM | 0.8 | 0.00794 µM | 0.8 | CCN(CC)CCN(CCNCCc1ccc(O)c2[nH]c(=O)sc12)C(=O)CCOCCc1ccccc1 [Example 12, N-[2-(Diethylamino)ethyl]-N-(2-{[2-(4-hydroxy-2-oxo-2,3-dihydro-1,3-benzothiazol-7-yl)ethyl]amino}ethyl)-3-(2-phenylethoxy)propanamide] |
| – | – | 0.00794 µM | 1 | CN(C)CCN(CCNCCc1ccc(O)c2[nH]c(=O)sc12)C(=O)CCOCCc1ccccc1 [Example 14, N-[2-(Dimethylamino)ethyl]-N-(2-{[2-(4-hydroxy-2-oxo-2,3-dihydro-1,3-benzothiazol-7-yl)ethyl]amino}ethyl)-3-(2-phenylethoxy)propanamide] |
| – | – | 0.0126 µM | 0.8 | CCN(CC)CCN(CCNCCc1ccc(O)c2[nH]c(=O)sc12)C(=O)CCOCCc1ccc(O)cc1 [Example 19, N-[2-(Diethylamino)ethyl]-N-(2-{[2-(4-hydroxy-2-oxo-2,3-dihydro-1,3-benzothiazol-7-yl)ethyl]amino}ethyl)-3-[2-(4-hydroxyphenyl)ethoxy]propanamide ditrifluoroacetate] |
